This note sets out measurements from ChEMBL document CHEMBL4177711, “Synthesis, in vitro and in silico evaluation of novel trans-stilbene analogues as potential COX-2 inhibitors” (Bioorg Med Chem, 2018).

pIC50: −log10 of the molar value.

Data set [1] concerns the target T1, Prostaglandin G/H synthase 2 (Homo sapiens) (UniProt P35354).
T1 sequence (whole entry): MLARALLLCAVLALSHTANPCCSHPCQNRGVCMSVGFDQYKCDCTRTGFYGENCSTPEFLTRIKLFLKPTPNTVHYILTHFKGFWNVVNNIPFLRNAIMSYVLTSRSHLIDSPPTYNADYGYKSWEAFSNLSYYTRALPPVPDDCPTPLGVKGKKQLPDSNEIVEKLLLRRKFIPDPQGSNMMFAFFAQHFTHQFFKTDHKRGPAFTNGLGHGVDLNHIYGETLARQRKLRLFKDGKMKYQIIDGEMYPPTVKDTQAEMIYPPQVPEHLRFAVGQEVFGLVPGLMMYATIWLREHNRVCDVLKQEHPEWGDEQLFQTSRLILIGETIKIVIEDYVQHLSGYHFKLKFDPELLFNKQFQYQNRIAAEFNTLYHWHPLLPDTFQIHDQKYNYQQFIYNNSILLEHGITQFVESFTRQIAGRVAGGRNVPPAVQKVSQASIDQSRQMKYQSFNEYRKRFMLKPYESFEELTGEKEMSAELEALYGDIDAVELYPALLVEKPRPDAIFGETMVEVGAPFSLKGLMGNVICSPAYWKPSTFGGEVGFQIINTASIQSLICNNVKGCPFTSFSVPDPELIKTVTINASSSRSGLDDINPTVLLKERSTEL
The data set is described as follows: Inhibition of human COX2 assessed as reduction in PGF2alpha level at 100 uM using arachidonic acid as substrate preincubated for 10 mins followed by substrate addition by ELISA relative to control.

For data set [2], the target named is T2, COX1 (Prostaglandin G/H synthase 1) (Ovis aries, UniProt P05979).
T2 sequence (P05979 whole entry): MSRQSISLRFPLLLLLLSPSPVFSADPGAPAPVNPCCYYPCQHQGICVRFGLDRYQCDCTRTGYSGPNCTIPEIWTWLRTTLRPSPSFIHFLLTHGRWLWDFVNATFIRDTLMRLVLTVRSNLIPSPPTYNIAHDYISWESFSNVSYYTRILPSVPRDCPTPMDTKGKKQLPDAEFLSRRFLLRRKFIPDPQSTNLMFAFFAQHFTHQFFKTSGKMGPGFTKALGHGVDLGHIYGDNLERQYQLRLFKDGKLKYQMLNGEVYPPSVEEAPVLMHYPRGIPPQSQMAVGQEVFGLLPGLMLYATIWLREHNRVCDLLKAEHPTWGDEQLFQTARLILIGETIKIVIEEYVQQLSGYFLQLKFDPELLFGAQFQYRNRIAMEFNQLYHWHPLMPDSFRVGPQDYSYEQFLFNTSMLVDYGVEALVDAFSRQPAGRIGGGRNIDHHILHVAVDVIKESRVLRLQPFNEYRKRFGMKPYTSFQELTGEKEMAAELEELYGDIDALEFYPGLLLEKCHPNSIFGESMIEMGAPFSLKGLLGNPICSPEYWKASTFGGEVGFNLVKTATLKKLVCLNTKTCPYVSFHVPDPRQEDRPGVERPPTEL
Put plainly: Inhibition of ovine COX1 assessed as reduction in PGF2alpha level at 100 uM using arachidonic acid as substrate preincubated for 10 mins followed by substrate addition by ELISA relative to control. The note with it: sheep, ovine COX1 enzyme, probe arachidonic acid.

Data set [3] in a line: Selectivity index, ratio of IC50 for ovine COX1 to IC50 for human COX2.
In data set [4] the target is T3, Prostaglandin G/H synthase 1 (Ovis aries, UniProt P05979).
T3 sequence (P05979 whole entry): T2 sequence (P05979 whole entry)
The data set is described as follows: Inhibition of ovine COX1 assessed as reduction in PGF2alpha level using arachidonic acid as substrate preincubated for 10 mins followed by substrate addition by ELISA.

Data set [5] has as its target T4, Prostaglandin G/H synthase 2 (Homo sapiens, UniProt P35354).
T4 sequence (P35354 whole entry): T1 sequence (whole entry)
Put plainly: Inhibition of human COX2 assessed as reduction in PGF2alpha level using arachidonic acid as substrate preincubated for 10 mins followed by substrate addition by ELISA.

Data set [6] concerns MCF7. Put plainly: Antiproliferative activity against human MCF7 cells after 72 hrs by MTT assay. The note with it: MCF7, 72 h.
Data set [7] addresses T1, Prostaglandin G/H synthase 2 (Homo sapiens). Put plainly: Inhibition of COX2 in human MCF7 cells assessed as reduction in PGE2 level at 12.5 uM after 72 hrs by ELISA relative to control. Format: cell-based.
Data set [8] has the same target. Put plainly: Inhibition of COX2 in human MCF7 cells assessed as reduction in PGE2 level at 6.25 uM after 72 hrs by ELISA relative to control. Format: cell-based.
The target is the same in data set [9]. The data set is described as follows: Inhibition of COX2 in human MCF7 cells assessed as reduction in PGE2 level after 72 hrs by ELISA. Format: cell-based.
Data set [10] in a line: Solubility of the compound in DMEM culture medium at >12.5 uM. Format: physicochemical.
Data set [11] has as its system MCF7. The data set is described as follows: Antiproliferative activity against human MCF7 cells up to 100 uM after 72 hrs by MTT assay relative to control. In kind it is functional.

Consider `Oc1ccc(/C=C/c2ccc(Cl)cc2)cc1`, for which, in [1], the inhibition was determined as 3.73%. The inhibition at 100 µM in data set [2] was determined as 9.64%.
For `O=[N+]([O-])c1ccc(/C=C/c2ccc(O)cc2)c([N+](=O)[O-])c1`, the inhibition in [1] was 29%. Besides, the inhibition at 100 µM in [2] was 6.09%.
Regarding `O=[N+]([O-])c1ccc(/C=C/c2ccc(OCc3ccccc3)cc2)cc1`, the inhibition in [1] turned out to be 15.7%. Also, the inhibition at 100 µM in data set [2] turned out to be 3.36%.
In the case of `CCOc1ccc(/C=C/c2ccc(Cl)cc2)cc1`, the inhibition in data set [1] was determined as 12.3%. For the same compound, the inhibition at 100 µM in data set [2] was found to be 39.2%.
As to `Oc1ccc(/C=C/c2ccncc2)cc1`, in data set [1], the inhibition came to 8.88%. Further, the inhibition at 100 µM in data set [2] is 17.3%.
As for `Oc1ccc(/C=C/c2cc[n+](Cc3cccc(Cl)c3)cc2)cc1`, the inhibition in [1] worked out at 21.9%. Moreover, the inhibition at 100 µM in [2] came out at 11.2%.
Regarding `Oc1ccc(/C=C/c2ccc(O)cc2)cc1` [TRANS-4,4'-DIHYDROXYSTILBENE], the inhibition in data set [1] is 11.1%. Further, the inhibition at 100 µM in data set [2] turned out to be 4.92%.
Turning to `COC(=O)COc1ccc(/C=C/c2ccc(OCC(=O)OC)cc2)cc1`, the inhibition in data set [1] came to 44.5%. Further, the inhibition at 100 µM in data set [2] was found to be 28.5%.
Take `CCOc1cccc(/C=C/c2ccc([N+](=O)[O-])cc2)c1`: the inhibition in data set [1] worked out at 23.4%. Besides, the inhibition at 100 µM in [2] was 2.42%.
For the compound `Oc1ccc(/C=C/c2cc[n+](Cc3ccccc3Cl)cc2)cc1`, the inhibition in data set [1] worked out at 10.2%. For the same compound, the inhibition at 100 µM in data set [2] was determined as 1.57%.
Turning to `COc1ccc(/C=C/c2ccc([N+](=O)[O-])cc2)cc1OC`, in data set [3], the Ratio IC50 stood at 0.14. Moreover, the pIC50 was 6.18 in [4] and 5.33 in data set [5].
In the data set on MCF7 [6], `Cc1ccc(-c2cc(C(F)(F)F)nn2-c2ccc(S(N)(=O)=O)cc2)cc1` [CELECOXIB] showed a pIC50 of 4.30.
Turning to `Oc1ccc(/C=C/c2cc[n+](Cc3ccc(Cl)cc3)cc2)cc1`, the inhibition in [1] worked out at 5.38%. The inhibition at 100 µM in data set [2] is 15.7%.
As for `CCOc1ccc(/C=C/c2ccccc2)cc1`, in data set [1], the inhibition worked out at 40.8%. Moreover, the inhibition at 100 µM in data set [2] came out at 32.3%.
Turning to `CCOc1ccc(/C=C/c2ccc([N+](=O)[O-])cc2)cc1`, the Ratio IC50 in [3] stood at 21.2. For the same compound, the results for the pIC50 in data set [4] and in data set [5] were 4.07 and 5.40, respectively. The inhibition in data set [1] is 77.4%. Besides, in data set [2], the inhibition at 100 µM worked out at 54.6%.
`Oc1cccc(/C=C/c2ccncc2)c1`: in [1], the inhibition was determined as 20.4%. The inhibition at 100 µM in data set [2] worked out at 23.1%.
As for `Oc1ccc(/C=C/c2ccc(Br)cc2)cc1`, the inhibition in [1] turned out to be 14.3%. Further, in data set [2], the inhibition at 100 µM was 6.8%.
In the case of `O=[N+]([O-])c1ccc(/C=C/c2ccccc2)cc1`, in data set [1], the inhibition was found to be 35%. Moreover, the inhibition at 100 µM in data set [2] is 16.3%.
The corresponding values for `CC(=O)Oc1cccc(/C=C/c2ccc([N+](=O)[O-])cc2[N+](=O)[O-])c1` are 34.1% and 28.3%.
The matching figures for `CCOc1cccc(/C=C/c2ccc([N+](=O)[O-])cc2[N+](=O)[O-])c1`: 27.5% and 15.4%.
`O=[N+]([O-])c1ccc(/C=C/c2ccc(O)cc2)cc1`: in data set [1], the inhibition was 37.1%. Also, in data set [2], the inhibition at 100 µM turned out to be 22.2%.
For `Oc1ccccc1/C=C/c1ccncc1`, the inhibition in data set [1] came out at 8.56%. Further, in data set [2], the inhibition at 100 µM stood at 9.71%.
`CCOc1ccc(/C=C/c2ccc([N+](=O)[O-])cc2[N+](=O)[O-])cc1`: the inhibition in data set [1] amounted to 40.4%. The inhibition at 100 µM in [2] was determined as 14.1%.
On to `COC(=O)COc1ccc(/C=C/c2ccc(Cl)cc2)cc1`, for which the Ratio IC50 in data set [3] worked out at 5.45. Moreover, the values for the pIC50 in data set [4] and in data set [5] were 4.39 and 5.12, respectively. Moreover, the inhibition in data set [1] stood at 71.8%. Also, in data set [2], the inhibition at 100 µM was 59.3%.
For `CC(=O)Oc1ccc(/C=C/c2ccc(OC(C)=O)cc2)cc1`, the inhibition in data set [1] was 23.4%. In addition, in data set [2], the inhibition at 100 µM turned out to be 3.16%.
For `O=[N+]([O-])c1ccc(/C=C/c2cc(O)c(O)c(O)c2)cc1`, the values for the inhibition in [7], in data set [8] and in data set [9] were 33.9%, 24.1% and “Dose-dependent effect”, respectively. In [3], the Ratio IC50 worked out at 62.8. In addition, the solubility entry in [10] is given as “Insoluble”. In addition, the values for the pIC50 in data set [4] and in data set [5] were 4.76 and 6.55, respectively. In the data set with MCF7 [11], the Activity worked out at 30%.
In the case of `COC(=O)COc1ccc(/C=C/c2ccc([N+](=O)[O-])cc2)cc1`, the Ratio IC50 in data set [3] was 4.13. In addition, the pIC50 in data set [4] is 4.39; in [5], 5.13. Further, the inhibition in data set [1] turned out to be 66.3%. For the same compound, the inhibition at 100 µM in [2] is 59.6%.
With `COc1cc(/C=C/c2ccc([N+](=O)[O-])cc2)cc(OC)c1OC`, the Ratio IC50 in data set [3] is 1.23. For the same compound, the values for the pIC50 in data set [4] and in data set [5] were 5.57 and 5.66, respectively. Moreover, the Activity with MCF7 [11] was determined as 30%.
As for `CC(=O)Oc1ccc(/C=C/c2ccccc2)cc1`, in data set [1], the inhibition worked out at 39.9%. Besides, the inhibition at 100 µM in data set [2] worked out at 20.5%.
